This passage reports T/C results from PubChem BioAssay AID200 (DTP/NCI, 2004).

Values joined by “and” are separate entries in the source; they are usually repeats but may differ in a detail not shown here. Equal values may be shown once. Inconclusive results and toxic doses are left out.

This test concerns B6C3F1 mice, B16 melanoma ip, median survival T/C. The experiment in a line: NCI In Vivo Anticancer Drug Screen. Data for tumor model B16 Melanoma (intraperitoneal) in B6C3F1 mice. The note with it: endpoint: median survival time, schedule: Q01DX009 (ip), higher = longer survival. Put shortly: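 Transplantable tumor in mice; treated vs vehicle control groups; survival or tumor size measured; value = T/C ratio.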

[1] abbreviates: dose: 12.5 mg/kg/injection, vehicle: saline with Tween-80.
The mark [2] stands for this setting: dose: 25.0 mg/kg/injection, vehicle: Klucel (hydroxypropylcellulose) (HPC).
The mark [3] stands for this setting: dose: 50.0 mg/kg/injection, vehicle: Klucel (hydroxypropylcellulose) (HPC).
The mark [4] stands for this setting: dose: 100.0 mg/kg/injection, vehicle: Klucel (hydroxypropylcellulose) (HPC).
The mark [5] stands for this setting: dose: 25.0 mg/kg/injection, vehicle: saline with Tween-80.
The mark [6] stands for this setting: dose: 50.0 mg/kg/injection, vehicle: saline with Tween-80.
Setting [7] is: dose: 3.0 mg/kg/injection, vehicle: saline.
[8] abbreviates: dose: 12.0 mg/kg/injection, vehicle: saline.
The mark [9] stands for this setting: dose: 12.5 mg/kg/injection, vehicle: Klucel (hydroxypropylcellulose) (HPC).
[10] abbreviates: dose: 6.25 mg/kg/injection, vehicle: saline with Tween-80.
Where [11] appears, read: dose: 6.25 mg/kg/injection, vehicle: saline.
The mark [12] stands for this setting: dose: 10.0 mg/kg/injection, vehicle: saline.
The mark [13] stands for this setting: dose: 12.5 mg/kg/injection, vehicle: saline.
The mark [14] stands for this setting: dose: 25.0 mg/kg/injection, vehicle: saline.

Take `O=C1C=C(N2CC2)C(=O)C(N2CC2)=C1N1CC1`: the T/C (dose: 6.25 micrograms/kg/injection, vehicle: saline) was 111 % of control; the T/C (dose: 12.5 micrograms/kg/injection, vehicle: saline) was 95 % of control; the T/C (dose: 25.0 micrograms/kg/injection, vehicle: saline) was 113 % of control; the T/C (dose: 50.0 micrograms/kg/injection, vehicle: saline) is 165 % of control; the T/C (dose: 100.0 micrograms/kg/injection, vehicle: saline) was 157 % of control.
Consider `COc1cc2c[n+](C)c3c(c2cc1OC)Cc1cc2c(cc1-3)OCO2`, for which the T/C is 120 % of control under setting [1]; 111 % of control (dose: 12.5 mg/kg/injection, vehicle: suspension in saline); 111 % of control (dose: 25.0 mg/kg/injection, vehicle: suspension in saline); 110 % of control (dose: 50.0 mg/kg/injection, vehicle: suspension in saline).
On to `Cn1c2ccccc2c(=O)c2c(O)cc3c(c21)C=CC(C)(C)O3`, for which the T/C was 86 % of control under setting [2], 89 % of control under setting [3] and 96 % of control under setting [4].
For the compound `O=C1OCC2(C(=O)O)C(=O)OCC12` (centres undefined), the T/C runs as follows: under setting [1], 105 % of control; under setting [5], 100 % of control; under setting [6], 101 % of control; (dose: 100.0 mg/kg/injection, vehicle: saline with Tween-80) 104 % of control; (dose: 200.0 mg/kg/injection, vehicle: saline with Tween-80) 90 % of control.
As for `[N-]=[N+]=[N-]`, the T/C (dose: 1.5 mg/kg/injection, vehicle: saline) was 101 % of control; the T/C under setting [7] was 90 % of control; the T/C (dose: 6.0 mg/kg/injection, vehicle: saline) is 103 % of control; the T/C under setting [8] is 108 % of control.
As to `Nc1c(/C=C/c2cc3cc(C4=NCCN4)ccc3o2)[nH]c2cc(C3=NCCN3)ccc12`, the T/C (dose: 1.5 mg/kg/injection, vehicle: Klucel (hydroxypropylcellulose) (HPC)) was 108 % of control; the T/C (dose: 3.0 mg/kg/injection, vehicle: Klucel (hydroxypropylcellulose) (HPC)) is 98 % of control; the T/C (dose: 6.0 mg/kg/injection, vehicle: Klucel (hydroxypropylcellulose) (HPC)) was 95 % of control; the T/C (dose: 12.0 mg/kg/injection, vehicle: Klucel (hydroxypropylcellulose) (HPC)) was 98 % of control; the T/C under setting [9] is 90 % of control; the T/C (dose: 24.0 mg/kg/injection, vehicle: Klucel (hydroxypropylcellulose) (HPC)) was 90 % of control. For the same compound, under setting [2], the T/C is 89 % of control.
`c1ccc2c(c1)-c1ccccc1C1NC21` (centres undefined): the T/C by setting is: under setting [10], 103 % of control; under setting [1], 112 % of control.
As for `COc1cccc2c1C(=O)c1c(O)c3c(c(O)c1C2=O)CC(O)(/C(C)=N/NC(=O)CCC(=O)N/N=C(\C)C1(O)Cc2c(O)c4c(c(O)c2C(OC2CC(N)C(O)C(C)O2)C1)C(=O)c1c(OC)cccc1C4=O)CC3OC1CC(N)C(O)C(C)O1` (centres undefined), the T/C was 171 % of control (dose: 0.75 mg/kg/injection, vehicle: water); 171 % of control and 195 % of control (dose: 1.5 mg/kg/injection, vehicle: water); 202 % of control and 242 % of control (dose: 3.0 mg/kg/injection, vehicle: water); 250 % of control and 256 % of control (dose: 6.0 mg/kg/injection, vehicle: water); 320 % of control (dose: 12.0 mg/kg/injection, vehicle: water).
For `C[N+](C)=C1C=CC(=C2C=CSC=C2)C=C1`, the T/C is 115 % of control under setting [7] and 116 % of control under setting [11].
As to `CS(=O)(=O)OCCN(CCOS(C)(=O)=O)c1ccc(C=Nc2ccc(-c3csc(COc4ccccc4)n3)cc2)cc1`, the T/C reads like this: under setting [9], 114 % of control; under setting [3], 162 % of control.
With `CC1(c2ccc(Cl)cc2)OC(=O)C(=Cc2ccc([N+](=O)[O-])s2)C(=O)O1` (centres undefined), the T/C runs as follows: under setting [10], 89 % of control; under setting [1], 86 % of control; under setting [5], 90 % of control; under setting [6], 89 % of control.
For `Cc1ccc(C(=O)OC(C(=O)O)C(OC(=O)c2ccc(C)cc2)C(=O)O)cc1` (centres undefined) (tested in a mixture with another compound), the T/C was 93 % of control (dose: 6.25 mg/kg/injection, vehicle: other); 91 % of control (dose: 12.5 mg/kg/injection, vehicle: other); 111 % of control (dose: 25.0 mg/kg/injection, vehicle: other).
Turning to `C=C(C)[C@H]1CN[C@H](C(=O)O)[C@H]1CC(=O)O`, the T/C runs as follows: (dose: 0.31 mg/kg/injection, vehicle: saline) 96 % of control; (dose: 0.62 mg/kg/injection, vehicle: saline) 100 % of control; (dose: 1.25 mg/kg/injection, vehicle: saline) 91 % of control; (dose: 2.5 mg/kg/injection, vehicle: saline) 100 % of control; (dose: 5.0 mg/kg/injection, vehicle: saline) 90 % of control; under setting [11], 102 % of control. In addition, the T/C is 86 % of control under setting [12], 101 % of control under setting [13] and 93 % of control under setting [14].
With `O=[n+]1c2c(n([O-])c3ccccc31)-c1cccc3cccc-2c13`, the T/C was 99 % of control (dose: 3.12 mg/kg/injection, vehicle: saline); 91 % of control under setting [11]; 94 % of control under setting [13].
Turning to `O=C(C1CO1)C(Cl)(Cl)Cl` (centres undefined), the T/C was 92 % of control under setting [8] and 106 % of control under setting [14].
`O=C1c2ccccc2C(=O)c2c(NCCNCCO)ccc(O)c21`: the T/C (dose: 2.5 mg/kg/injection, vehicle: suspension in saline) is 118 % of control; the T/C (dose: 20.0 mg/kg/injection, vehicle: suspension in saline) was 153 % of control; the T/C (dose: 40.0 mg/kg/injection, vehicle: suspension in saline) is 184 % of control; the T/C (dose: 80.0 mg/kg/injection, vehicle: suspension in saline) is 190 % of control.
For `CN1C2CCC1C(Br)C(=O)C2` (centres undefined), the T/C is 105 % of control under setting [14]; 95 % of control (dose: 50.0 mg/kg/injection, vehicle: saline); 93 % of control (dose: 100.0 mg/kg/injection, vehicle: saline); 93 % of control (dose: 200.0 mg/kg/injection, vehicle: saline).
With `C[C@H]1CCC/C=C/[C@@H]2C[C@H](O)C[C@H]2[C@H](O)/C=C/C(=O)O1`, the T/C is 89 % of control under setting [9], 91 % of control under setting [2] and 91 % of control under setting [3].
`CN(C)CCC(C#N)(CCC1CCCCC1)c1ccccc1` (centres undefined): the T/C was 95 % of control under setting [12]; 95 % of control (dose: 20.0 mg/kg/injection, vehicle: saline); 92 % of control (dose: 40.0 mg/kg/injection, vehicle: saline).
On to `O=c1ssc(=Nc2ccccc2)n1-c1ccccc1`, for which the T/C under setting [9] is 98 % of control; the T/C under setting [2] was 101 % of control; the T/C under setting [3] was 96 % of control; the T/C under setting [4] was 97 % of control; the T/C (dose: 200.0 mg/kg/injection, vehicle: Klucel (hydroxypropylcellulose) (HPC)) is 92 % of control; the T/C (dose: 400.0 mg/kg/injection, vehicle: Klucel (hydroxypropylcellulose) (HPC)) is 96 % of control.
Consider `N#Cc1c(N)[nH]c2ccc(Sc3ccccc3)cc12`, for which the T/C runs as follows: under setting [10], 110 % of control; under setting [1], 94 % of control; under setting [5], 99 % of control; under setting [6], 107 % of control.
